Earlier results in US7927486B2, “Polymer modified porous substrate for solid phase extraction” (priority 2005, dated 2011).

SMILES: CCCCNCC(O)c1ccc(O)cc1.CCCCNCC(O)c1ccc(O)cc1.O=S(=O)(O)O (stereo not shown) [Bamathan hemisulfate]
- Log P: 1.29
